As usually defined, the IC50 is the concentration that gives 50% inhibition. Low readings indicate higher potency, high ones lower potency.

The structures appear in SMILES notation.

The experiment deals with human cervix cancer cells Hela. The experiment can be described thus: Plk Cell Proliferation Inhibition Assay (CCK8, 72 hours). It is filed as cell-based. The following applies: Hela cells highly expressing Plk. The text has this:
The following in vitro assay is to determine the activity of the compounds of the present invention for inhibiting the proliferation of human cervix cancer cells Hela, which has high expression of Plk.
The in vitro cellular assay described here is to determine the activity of the tested compounds for inhibiting the proliferation of cancer cells, which has high expression of Plk. The activity is represented by the […]. The general procedures for the assay are given as follows: The Hela cells highly expressing Plk (Institute of biochemistry and cell biology) were seeded to 96-well cell culture plate at a suitable concentration (exp 3000 cells/ml medium). The cells then were cultured in carbon dioxide (CO2) incubator and grew overnight. Then, the cell culture medium was replaced by fresh one with tested compounds added in it at serial concentrations (general 7 to 9 concentrations). Then the cells were put back to the incubator and cultured for continuous 72 hours. 72 hours later, the activity of the tested compounds for inhibiting the cell proliferation was determined by using CCK8 (cell counting kit-8, Dojindo, NO:CK04) method. IC50 value on tested cells were calculated by the data of inhibition rates of serial concentrations of the tested compounds.

In turn, `CC[C@@H]1C(=O)N(C)c2cnc(Nc3ccc(C(=O)NC[C@H]4CN5CCC[C@H]5CO4)c4c3OCC4)nc2N1C1CCCC1` [Example 26, N-[[(3S,8aS)-3,4,6,7,8,8a-Hexahydro-1H-pyrrolo[2,1-c][1,4]oxazin-3-yl]methyl]-7-[[(7R)-8-cyclopentyl-7-ethyl-5-methyl-6-oxo-7H-pteridin-2-yl]amino]-2,3-dihydrobenzofuran-4-carboxamide] yielded an IC50 of 3 nM.
`CC[C@@H]1C(=O)N(C)c2cnc(Nc3ccc(C(=O)NC[C@H]4CN5CCC[C@@H]5CO4)c4c3OCC4)nc2N1C1CCCC1` [Example 27, N-[[(3S,8aR)-3,4,6,7,8,8a-Hexahydro-1H-pyrrolo[2,1-c][1,4]oxazin-3-yl]methyl]-7-[[(7R)-8-cyclopentyl-7-ethyl-5-methyl-6-oxo-7H-pteridin-2-yl]amino]-2,3-dihydrobenzofuran-4-carboxamide] showed an IC50 of 1 nM.
`CC[C@@H]1C(=O)N(C)c2cnc(Nc3ccc(C(=O)NC[C@@H]4CN5CCC[C@@H]5CO4)c4c3OCC4)nc2N1C1CCCC1` [Example 28, N-[[(3R,8aR)-3,4,6,7,8,8a-Hexahydro-1H-pyrrolo[2,1-c][1,4]oxazin-3-yl]methyl]-7-[[(7R)-8-cyclopentyl-7-ethyl-5-methyl-6-oxo-7H-pteridin-2-yl]amino]-2,3-dihydrobenzofuran-4-carboxamide]: the IC50 stood at 3 nM.
In the case of `CC[C@@H]1C(=O)N(C)c2cnc(Nc3ccc(C(=O)NC4CCN(C)CC4)c4c3OC(CN(C)C)C4)nc2N1C1CCCC1` (stereo partly drawn) [Example 29, 7-[[(7R)-8-Cyclopentyl-7-ethyl-5-methyl-6-oxo-7H-pteridin-2-yl]amino]-2-(dimethylaminomethyl)-N-(1-methyl-4-piperidyl)-2,3-dihydrobenzofuran-4-carboxamide], half-maximal inhibition (IC50) was put at 30 nM.
In the case of `CC[C@@H]1C(=O)N(C)c2cnc(Nc3ccc(C(=O)NC4CCN(C)CC4)c4c3OC(C)C4)nc2N1C1CCCC1` (stereo partly drawn) [Example 30, 7-[[(7R)-8-Cyclopentyl-7-ethyl-5-methyl-6-oxo-7H-pteridin-2-yl]amino]-2-methyl-N-(1-methyl-4-piperidyl)-2,3-dihydrobenzofuran-4-carboxamide], the IC50 was 4 nM.
With `CC[C@@H]1C(=O)N(C)c2cnc(Nc3ccc(C(=O)NC[C@H](O)CN4CCN(C)CC4)c4c3OCC4)nc2N1C(C)C` [Example 32, 7-[[(7R)-7-Ethyl-8-isopropyl-5-methyl-6-oxo-7H-pteridin-2-yl]amino]-N-[(2S)-2-hydroxy-3-(4-methylpiperazin-1-yl)propyl]-2,3-dihydrobenzofuran-4-carboxamide] the figure was 9 nM; with `CC[C@@H]1C(=O)N(C)c2cnc(Nc3ccc(C(=O)NC[C@@H](O)CN4CCN(C)CC4)c4c3OCC4)nc2N1C(C)C` [Example 33, 7-[[(7R)-7-Ethyl-8-isopropyl-5-methyl-6-oxo-7H-pteridin-2-yl]amino]-N-[(2R)-2-hydroxy-3-(4-methylpiperazin-1-yl)propyl]-2,3-dihydrobenzofuran-4-carboxamide], 7 nM.
Next, `CC[C@@H]1C(=O)N(C)c2cnc(Nc3ccc(C(=O)N[C@H]4CC[C@H](N5CCN(CC6CC6)CC5)CC4)c4c3OCC4)nc2N1C1CCCC1` [Example 34, 7-[[(7R)-8-Cyclopentyl-7-ethyl-5-methyl-6-oxo-7H-pteridin-2-yl]amino]-N-[(trans)-4-[4-(cyclopropylmethyl)piperazin-1-yl]cyclohexyl]-2,3-dihydrobenzofuran-4-carboxamide]: 0.7 nM; `CC[C@@H]1C(=O)N(C)c2cnc(Nc3ccc(C(=O)NC[C@@H](CN4CCN(CC5CC5)CC4)OC)c4c3OCC4)nc2N1C1CCCC1` [Example 35, 7-[[(7R)-8-Cyclopentyl-7-ethyl-5-methyl-6-oxo-7H-pteridin-2-yl]amino]-N-[(2S)-3-[4-(cyclopropylmethyl)piperazin-1-yl]-2-methoxy-propyl]-2,3-dihydrobenzofuran-4-carboxamide]: 2 nM.

These data come from patent US8691822B2, “Dihydropteridinone derivatives, preparation process and pharmaceutical use thereof” (Jiangsu Hengrui Medicine Co., Ltd., priority 2009, dated 2014).
